Source: ChEMBL document CHEMBL5653615 (J Biol Chem, 2013)

How the values were obtained:
[1] = target: MAP kinase-interacting serine/threonine-protein kinase 1 (Homo sapiens) (UniProt Q9BUB5); experiment: Inhibition of human MNK1 at 18.6 nM by HotSpot assay relative to control
[2] = target: Activin receptor type-1-like (Homo sapiens) (UniProt P37023); experiment: Inhibition of human ALK1 at 18.6 nM by HotSpot assay relative to control
[3] = target: TGF-beta receptor type-2 (Homo sapiens) (UniProt P37173); experiment: Inhibition of human TGFBR2 at 18.6 nM by HotSpot assay relative to control
[4] = target: Serine/threonine-protein kinase B-raf (Homo sapiens) (UniProt P15056); experiment: Inhibition of human BRAF at 18.6 nM by HotSpot assay relative to control
[5] = target: Tyrosine-protein kinase ABL2 (Homo sapiens) (UniProt P42684); experiment: Inhibition of human ABL2 at 18.6 nM by HotSpot assay relative to control
[6] = target: T1, Mitogen-activated protein kinase kinase kinase 5 (Homo sapiens) (UniProt Q99683); experiment: Inhibition of human ASK1 at 1.82 nM by HotSpot assay relative to control
T1 sequence (whole entry): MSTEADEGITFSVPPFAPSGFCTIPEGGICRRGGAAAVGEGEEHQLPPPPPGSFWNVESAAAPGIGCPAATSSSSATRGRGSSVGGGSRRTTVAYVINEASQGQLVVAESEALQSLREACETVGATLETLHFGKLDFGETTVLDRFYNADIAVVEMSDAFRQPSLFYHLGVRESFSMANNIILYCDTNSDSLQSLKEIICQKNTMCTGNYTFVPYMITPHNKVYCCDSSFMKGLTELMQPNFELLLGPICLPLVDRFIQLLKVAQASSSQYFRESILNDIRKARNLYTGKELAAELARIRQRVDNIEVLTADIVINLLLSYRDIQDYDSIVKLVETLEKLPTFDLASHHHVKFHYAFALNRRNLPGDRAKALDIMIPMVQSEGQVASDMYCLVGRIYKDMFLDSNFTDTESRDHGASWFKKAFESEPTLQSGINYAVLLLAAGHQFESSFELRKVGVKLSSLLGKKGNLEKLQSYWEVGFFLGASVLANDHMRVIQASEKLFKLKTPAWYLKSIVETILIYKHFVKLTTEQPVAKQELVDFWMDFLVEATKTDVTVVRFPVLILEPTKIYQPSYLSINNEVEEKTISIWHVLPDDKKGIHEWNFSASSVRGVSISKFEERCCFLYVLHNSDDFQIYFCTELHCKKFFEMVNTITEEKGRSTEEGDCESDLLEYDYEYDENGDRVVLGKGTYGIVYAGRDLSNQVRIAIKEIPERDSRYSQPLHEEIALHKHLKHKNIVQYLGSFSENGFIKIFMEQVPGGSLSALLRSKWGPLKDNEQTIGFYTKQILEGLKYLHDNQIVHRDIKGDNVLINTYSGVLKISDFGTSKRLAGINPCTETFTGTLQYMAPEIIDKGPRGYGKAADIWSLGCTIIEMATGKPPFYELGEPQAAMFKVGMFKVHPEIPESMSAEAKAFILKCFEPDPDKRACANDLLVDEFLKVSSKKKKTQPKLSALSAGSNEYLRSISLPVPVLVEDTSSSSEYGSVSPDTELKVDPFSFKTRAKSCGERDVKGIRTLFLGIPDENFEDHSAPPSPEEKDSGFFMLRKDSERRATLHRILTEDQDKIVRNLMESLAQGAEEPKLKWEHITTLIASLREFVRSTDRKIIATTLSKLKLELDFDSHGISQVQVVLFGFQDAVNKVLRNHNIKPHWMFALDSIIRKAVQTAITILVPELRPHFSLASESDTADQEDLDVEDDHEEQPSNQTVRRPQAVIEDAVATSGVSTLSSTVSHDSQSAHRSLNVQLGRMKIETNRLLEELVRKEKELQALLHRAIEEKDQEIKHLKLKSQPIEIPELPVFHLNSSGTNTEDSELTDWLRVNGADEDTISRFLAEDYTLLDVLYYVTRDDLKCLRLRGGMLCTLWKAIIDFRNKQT

[7] = target: T2, cGMP-dependent protein kinase 2 (Homo sapiens) (UniProt Q13237); experiment: Inhibition of human PRKG2 at 1.82 nM by HotSpot assay relative to control
T2 sequence (whole entry): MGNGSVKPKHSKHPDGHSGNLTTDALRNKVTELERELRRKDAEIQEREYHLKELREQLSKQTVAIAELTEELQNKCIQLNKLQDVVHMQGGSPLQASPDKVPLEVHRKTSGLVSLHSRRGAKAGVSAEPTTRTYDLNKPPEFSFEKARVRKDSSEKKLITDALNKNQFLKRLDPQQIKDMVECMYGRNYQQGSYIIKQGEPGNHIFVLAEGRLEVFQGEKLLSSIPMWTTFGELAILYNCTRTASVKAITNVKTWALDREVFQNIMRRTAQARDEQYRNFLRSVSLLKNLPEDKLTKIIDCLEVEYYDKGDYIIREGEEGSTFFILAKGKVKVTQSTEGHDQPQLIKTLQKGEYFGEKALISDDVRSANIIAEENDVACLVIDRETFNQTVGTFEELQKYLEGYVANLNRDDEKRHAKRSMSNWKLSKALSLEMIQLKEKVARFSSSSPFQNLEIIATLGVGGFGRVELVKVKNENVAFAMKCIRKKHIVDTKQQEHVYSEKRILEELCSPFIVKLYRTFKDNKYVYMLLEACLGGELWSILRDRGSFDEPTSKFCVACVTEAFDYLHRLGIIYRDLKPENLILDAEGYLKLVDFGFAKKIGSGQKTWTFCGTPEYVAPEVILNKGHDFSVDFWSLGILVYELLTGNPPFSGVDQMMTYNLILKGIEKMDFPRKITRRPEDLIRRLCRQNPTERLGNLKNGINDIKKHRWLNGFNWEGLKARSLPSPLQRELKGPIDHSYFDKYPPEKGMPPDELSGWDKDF

[8] = target: Calcium/calmodulin-dependent protein kinase type II subunit gamma (Homo sapiens) (UniProt Q13555); experiment: Inhibition of human CAMK2g at 1.82 nM by HotSpot assay relative to control
[9] = target: Dual specificity tyrosine-phosphorylation-regulated kinase 1A (Homo sapiens) (UniProt Q13627); experiment: Inhibition of human DYRK1 at 1.82 nM by HotSpot assay relative to control
[10] = target: Cyclin-dependent kinase 1/cyclin B1 (Homo sapiens) (UniProt P06493+P14635); experiment: Inhibition of human CDK1/cyclin B at 1.82 nM by HotSpot assay relative to control; format: protein-complex assay
Chain of Cyclin-dependent kinase 1/cyclin B1 (Homo sapiens) (P06493 whole entry, looked up): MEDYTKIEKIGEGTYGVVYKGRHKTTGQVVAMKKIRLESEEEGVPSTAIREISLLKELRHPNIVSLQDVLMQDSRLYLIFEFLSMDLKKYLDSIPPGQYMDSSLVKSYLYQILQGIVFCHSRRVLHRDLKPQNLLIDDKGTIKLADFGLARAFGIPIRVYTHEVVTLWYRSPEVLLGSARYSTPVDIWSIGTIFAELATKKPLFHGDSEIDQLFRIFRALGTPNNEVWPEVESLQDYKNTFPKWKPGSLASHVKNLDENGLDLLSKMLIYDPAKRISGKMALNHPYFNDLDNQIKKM
Chain of Cyclin-dependent kinase 1/cyclin B1 (Homo sapiens) (P14635 whole entry, looked up): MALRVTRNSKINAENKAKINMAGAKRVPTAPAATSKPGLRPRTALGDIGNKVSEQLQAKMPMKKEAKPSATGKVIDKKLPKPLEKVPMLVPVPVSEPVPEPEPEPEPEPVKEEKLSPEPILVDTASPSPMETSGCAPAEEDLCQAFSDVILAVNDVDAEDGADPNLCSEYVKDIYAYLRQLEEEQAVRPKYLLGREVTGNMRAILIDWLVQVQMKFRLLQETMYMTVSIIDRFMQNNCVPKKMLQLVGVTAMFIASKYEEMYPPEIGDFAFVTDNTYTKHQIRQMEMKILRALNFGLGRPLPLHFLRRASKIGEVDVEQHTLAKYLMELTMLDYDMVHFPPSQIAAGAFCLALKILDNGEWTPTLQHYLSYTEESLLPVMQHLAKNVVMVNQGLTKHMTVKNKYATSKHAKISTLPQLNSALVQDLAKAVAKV

Chain of TGF-beta receptor type-2 (Homo sapiens) (P37173 whole entry): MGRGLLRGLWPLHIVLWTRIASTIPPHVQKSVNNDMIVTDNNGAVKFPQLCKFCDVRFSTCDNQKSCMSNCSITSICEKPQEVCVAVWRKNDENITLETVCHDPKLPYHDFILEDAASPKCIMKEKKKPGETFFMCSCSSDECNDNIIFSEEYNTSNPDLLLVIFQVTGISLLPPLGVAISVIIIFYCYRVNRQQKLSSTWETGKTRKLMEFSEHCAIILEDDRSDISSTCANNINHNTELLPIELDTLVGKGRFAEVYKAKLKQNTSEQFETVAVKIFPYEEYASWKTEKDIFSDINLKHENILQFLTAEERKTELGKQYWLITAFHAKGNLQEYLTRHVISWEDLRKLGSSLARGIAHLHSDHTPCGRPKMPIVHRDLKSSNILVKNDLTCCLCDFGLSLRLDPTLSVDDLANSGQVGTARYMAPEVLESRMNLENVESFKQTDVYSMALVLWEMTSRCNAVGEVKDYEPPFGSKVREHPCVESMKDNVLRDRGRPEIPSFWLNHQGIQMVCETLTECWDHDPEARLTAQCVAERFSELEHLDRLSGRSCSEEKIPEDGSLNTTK
Chain of Calcium/calmodulin-dependent protein kinase type II subunit gamma (Homo sapiens) (Q13555 whole entry): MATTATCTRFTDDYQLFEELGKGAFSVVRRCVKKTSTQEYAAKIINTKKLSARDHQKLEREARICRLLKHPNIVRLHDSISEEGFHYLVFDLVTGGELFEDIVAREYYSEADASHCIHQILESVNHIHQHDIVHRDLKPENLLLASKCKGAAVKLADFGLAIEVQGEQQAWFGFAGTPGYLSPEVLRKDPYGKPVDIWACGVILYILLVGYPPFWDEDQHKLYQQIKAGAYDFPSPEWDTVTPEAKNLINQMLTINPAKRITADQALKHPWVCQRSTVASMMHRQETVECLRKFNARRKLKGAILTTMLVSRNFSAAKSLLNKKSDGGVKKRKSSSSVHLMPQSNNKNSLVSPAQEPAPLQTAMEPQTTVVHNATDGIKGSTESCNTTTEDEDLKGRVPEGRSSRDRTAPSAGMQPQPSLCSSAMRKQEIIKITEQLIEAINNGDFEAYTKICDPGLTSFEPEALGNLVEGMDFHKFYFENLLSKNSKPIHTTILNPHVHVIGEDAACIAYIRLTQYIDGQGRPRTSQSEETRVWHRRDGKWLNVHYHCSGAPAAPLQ
Chain of MAP kinase-interacting serine/threonine-protein kinase 1 (Homo sapiens) (Q9BUB5 whole entry, looked up): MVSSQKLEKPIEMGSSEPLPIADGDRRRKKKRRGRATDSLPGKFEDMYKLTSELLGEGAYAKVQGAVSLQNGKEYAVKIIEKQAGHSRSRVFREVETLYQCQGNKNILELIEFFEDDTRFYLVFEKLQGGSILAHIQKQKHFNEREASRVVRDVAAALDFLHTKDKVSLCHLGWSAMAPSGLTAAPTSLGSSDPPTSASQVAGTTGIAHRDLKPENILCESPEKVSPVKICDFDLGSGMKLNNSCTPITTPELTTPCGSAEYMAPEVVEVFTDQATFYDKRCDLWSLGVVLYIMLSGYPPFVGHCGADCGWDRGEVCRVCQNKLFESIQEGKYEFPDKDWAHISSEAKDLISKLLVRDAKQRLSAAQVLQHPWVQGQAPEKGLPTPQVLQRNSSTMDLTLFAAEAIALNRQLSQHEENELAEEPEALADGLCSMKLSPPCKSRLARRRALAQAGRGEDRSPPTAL
Chain of Serine/threonine-protein kinase B-raf (Homo sapiens) (P15056 whole entry): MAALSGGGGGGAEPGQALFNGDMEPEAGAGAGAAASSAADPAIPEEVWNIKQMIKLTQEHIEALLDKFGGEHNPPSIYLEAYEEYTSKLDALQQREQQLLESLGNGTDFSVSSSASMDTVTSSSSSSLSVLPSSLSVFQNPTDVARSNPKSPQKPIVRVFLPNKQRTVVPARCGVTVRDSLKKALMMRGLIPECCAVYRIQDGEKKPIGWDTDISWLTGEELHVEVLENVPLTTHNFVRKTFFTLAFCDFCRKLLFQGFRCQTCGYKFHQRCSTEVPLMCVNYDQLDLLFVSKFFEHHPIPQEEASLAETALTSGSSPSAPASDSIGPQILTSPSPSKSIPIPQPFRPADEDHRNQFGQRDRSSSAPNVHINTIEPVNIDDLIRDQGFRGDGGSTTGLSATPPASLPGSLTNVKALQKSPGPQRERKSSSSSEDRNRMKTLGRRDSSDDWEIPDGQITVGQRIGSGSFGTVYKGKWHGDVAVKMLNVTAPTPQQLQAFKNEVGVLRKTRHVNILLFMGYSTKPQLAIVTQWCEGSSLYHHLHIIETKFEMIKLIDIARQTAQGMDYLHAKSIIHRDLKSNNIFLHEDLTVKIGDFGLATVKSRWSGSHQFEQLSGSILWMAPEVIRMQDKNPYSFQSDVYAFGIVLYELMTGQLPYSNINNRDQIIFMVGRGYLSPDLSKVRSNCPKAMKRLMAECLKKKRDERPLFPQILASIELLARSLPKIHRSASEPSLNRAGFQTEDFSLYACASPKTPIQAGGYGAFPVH
Chain of Activin receptor type-1-like (Homo sapiens) (P37023 whole entry): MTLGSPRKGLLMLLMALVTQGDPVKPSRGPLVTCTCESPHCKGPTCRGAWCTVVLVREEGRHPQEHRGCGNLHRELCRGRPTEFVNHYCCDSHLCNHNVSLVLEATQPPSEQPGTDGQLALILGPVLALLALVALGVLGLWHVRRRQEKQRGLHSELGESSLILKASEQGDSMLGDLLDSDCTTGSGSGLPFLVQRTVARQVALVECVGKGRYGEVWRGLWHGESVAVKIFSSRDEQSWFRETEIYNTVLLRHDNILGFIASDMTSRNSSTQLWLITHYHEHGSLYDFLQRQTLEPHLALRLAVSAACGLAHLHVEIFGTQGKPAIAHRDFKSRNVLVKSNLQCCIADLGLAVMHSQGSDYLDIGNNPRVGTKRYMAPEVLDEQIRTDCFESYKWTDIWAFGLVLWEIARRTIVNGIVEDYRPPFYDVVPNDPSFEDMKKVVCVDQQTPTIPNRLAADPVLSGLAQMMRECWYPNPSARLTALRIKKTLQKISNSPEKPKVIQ
Chain of Tyrosine-protein kinase ABL2 (Homo sapiens) (P42684 whole entry): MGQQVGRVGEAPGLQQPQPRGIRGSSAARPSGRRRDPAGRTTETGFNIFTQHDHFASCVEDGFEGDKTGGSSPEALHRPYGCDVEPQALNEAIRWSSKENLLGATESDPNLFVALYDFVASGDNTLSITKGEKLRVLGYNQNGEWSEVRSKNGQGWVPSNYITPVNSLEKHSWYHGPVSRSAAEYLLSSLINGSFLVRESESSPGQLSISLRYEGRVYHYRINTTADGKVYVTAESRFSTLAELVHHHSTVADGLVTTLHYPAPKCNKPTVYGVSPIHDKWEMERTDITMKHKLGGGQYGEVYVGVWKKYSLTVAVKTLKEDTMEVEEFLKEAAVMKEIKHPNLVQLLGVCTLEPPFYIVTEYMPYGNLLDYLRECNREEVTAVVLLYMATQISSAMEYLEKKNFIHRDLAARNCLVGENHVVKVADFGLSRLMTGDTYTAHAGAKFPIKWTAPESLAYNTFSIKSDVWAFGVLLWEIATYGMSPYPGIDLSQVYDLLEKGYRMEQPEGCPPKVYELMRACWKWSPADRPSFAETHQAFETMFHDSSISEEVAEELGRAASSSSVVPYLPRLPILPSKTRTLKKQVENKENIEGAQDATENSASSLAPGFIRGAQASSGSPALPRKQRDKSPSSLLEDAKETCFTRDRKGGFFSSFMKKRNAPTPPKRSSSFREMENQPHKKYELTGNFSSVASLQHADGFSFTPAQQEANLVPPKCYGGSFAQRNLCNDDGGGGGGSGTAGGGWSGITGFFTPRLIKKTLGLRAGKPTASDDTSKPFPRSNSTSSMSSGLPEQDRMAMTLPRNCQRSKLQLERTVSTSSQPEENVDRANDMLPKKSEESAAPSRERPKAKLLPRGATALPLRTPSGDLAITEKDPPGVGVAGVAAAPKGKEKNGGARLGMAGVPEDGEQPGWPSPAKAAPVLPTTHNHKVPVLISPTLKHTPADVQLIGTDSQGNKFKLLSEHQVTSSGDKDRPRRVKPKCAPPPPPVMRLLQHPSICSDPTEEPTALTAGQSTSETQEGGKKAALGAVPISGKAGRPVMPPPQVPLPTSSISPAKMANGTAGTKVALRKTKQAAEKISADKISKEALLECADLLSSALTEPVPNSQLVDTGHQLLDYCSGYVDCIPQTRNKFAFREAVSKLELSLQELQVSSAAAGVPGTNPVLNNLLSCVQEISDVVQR

Row | inhibition [1] [%] | inhibition [2] [%] | inhibition [3] [%] | inhibition [4] [%] | inhibition [5] [%] | inhibition [6] [%] | inhibition [7] [%] | inhibition [8] [%] | inhibition [9] [%] | inhibition [10] [%] | SMILES
1 | 0.3 | 1.51 | 8.98 | 7.79 | -0.1 |  |  |  |  |  | C[C@]1(O)C[C@@H](c2nc(-c3ccc4ccc(-c5ccccc5)nc4c3)c3c(N)nccn32)C1
2 |  |  |  |  |  | -3.08 | -0.02 | 4.1 | -3.18 | 0.77 | C[C@@]1(C(=O)Nc2ccc(F)nc2)CCCN1c1nc(Nc2cc(C3CC3)n[nH]2)c2cccn2n1
